Measured values from patent publication US20220079931A1, “ESTROGEN RECEPTOR PROTEIN DEGRADERS” (THE REGENTS OF THE UNIVERSITY OF MICHIGAN, priority 2019, published 2022).

Experiments:
MCF-7 cells = test: WST-8 cell proliferation assay in MCF-7 cells; type: cell-based, human; details: MCF-7 cells, WST-8, 4 days
Description: (§1) Cell Culture. Human breast cancer cell lines MCF-7 (ATCC® HTB-22™) and T47D (ATCC® HTB-133™) were purchased from the American Type Culture Collection (ATCC), Manassas, Va., and maintained and cultured in Dulbecco's Modified Eagle's medium (DMEM) containing 10% fetal bovine serum, 1 unit/ml of penicillin and 1 μg/ml of streptomycin. Cells with 3-8 passages after purchase were used in experiments as indicated.
Cell Growth Assay. Cells were seeded at 1500/well in 96 well plates overnight. One day after seeding, they were treated with indicated doses of compounds. The growth of the cells was evaluated by colorimetric WST-8 assay 4 days after the compound treatment following the instructions of the manufacturer, Cayman Chemical, Ann Arbor, Mich.
Fulvestrant achieves an Imax value of 43.8%. […] RAD1901, a previously reported SERD molecule^18, achieves an Imax value of 25.7%.

[1] = background statement; cited from earlier work
[2] = background statement; cited from earlier work; remark: listed apart in the source
ERα [3] = biological target: T1, ERα (Homo sapiens, UniProt P03372); test: ER degradation by Western blotting in MCF-7 cells; type: cell-based; set-up: host or cells: MCF-7; details: 30 nM
T1 sequence (P03372 1-595): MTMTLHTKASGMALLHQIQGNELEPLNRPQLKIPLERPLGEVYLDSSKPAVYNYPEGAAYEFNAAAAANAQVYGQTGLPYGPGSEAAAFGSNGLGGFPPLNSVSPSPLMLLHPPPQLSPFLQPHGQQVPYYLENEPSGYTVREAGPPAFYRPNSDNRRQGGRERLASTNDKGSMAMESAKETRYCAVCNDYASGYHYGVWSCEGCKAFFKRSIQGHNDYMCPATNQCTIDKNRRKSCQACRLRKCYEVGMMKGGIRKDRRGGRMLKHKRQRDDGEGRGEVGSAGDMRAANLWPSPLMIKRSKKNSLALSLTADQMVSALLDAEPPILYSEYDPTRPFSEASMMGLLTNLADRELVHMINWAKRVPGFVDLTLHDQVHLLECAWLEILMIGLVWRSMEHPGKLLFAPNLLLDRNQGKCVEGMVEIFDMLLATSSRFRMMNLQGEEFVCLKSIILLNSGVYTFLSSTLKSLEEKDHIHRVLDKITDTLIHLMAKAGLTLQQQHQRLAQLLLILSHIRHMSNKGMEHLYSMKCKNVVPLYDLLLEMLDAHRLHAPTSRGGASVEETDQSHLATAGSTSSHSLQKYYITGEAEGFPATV
Description: FIG. 1 is an image showing the Western blotting analysis of ER protein in MCF-7 cells treated with Compounds of the Disclosure and control compounds. Cells were treated with different compounds for 4 h and whole cell lysates were then analyzed by Western blotting to examine the level of ER protein. GADPH protein was used for the loading control. The numbers below the panel represent the ERα/GADPH ratio normalized with the DMSO control at 100.
FIG. 2 is an image showing the Western blotting analysis of ER protein in the MCF-7 cells treated with indicated compounds at 1 nM, 10 nM and 100 nM. MCF-7 cells were treated with different compounds for 4 h and whole cell lysates were analyzed by Western blotting to examine the level of ER protein. GADPH protein was used for the loading control. The numbers below the panel represent the ERα/GADPH ratio normalized with the DMSO control at 100.
FIG. 7 is an image showing the ERα degradation dose-response Western blotting for compound 32 at 4 h in MCF-7 cells.
FIG. 9 is an image showing the time course of ERα degradation by Western blotting by compound 32 (30 nM) and fulvestrant (30 nM) in the MCF-7 cells.
as §1
(§2) Western Blot Analysis. Western blot analysis was performed essentially as described previously (Hu et al, 2015, PMID: 26358219). Cells treated with indicated compounds were lysed in Radioimmunoprecipitation Assay Protein Lysis and Extraction Buffer (25 mmol/L Tris.HCl, pH 7.6, 150 mmol/L NaCl, 1% Nonidet P-40, 1% sodium deoxycholate, and 0.1% sodium dodecyl sulfate) containing proteinase inhibitor cocktail (Roche Diagnostics, Mannheim, Germany). After determination of protein concentration by BCA assay (Fisher Scientific, Pittsburgh, Pa.), equal amounts of total protein were electrophoresed through 10% SDS-polyacrylamide gels. The separated protein bands were transferred onto PVDF membranes (GE Healthcare Life Sciences, Marlborough, Mass.) and blotted against different antibodies, as indicated. The human estrogen receptor a antibodies (AB16460) were purchased from Abeam, Inc., Cambridge, Mass. The membranes were reblotted with horseradish peroxidase-conjugated anti-glyceraldehyde-3-phosphate dehydrogenase antibody (G9295) from Sigma-Aldrich Corporation, St. Louis, Mo. The blots were scanned and the band intensities were quantified using GelQuant.NET software as described in biochemlabsolutions.com. The relative mean intensity of target proteins was expressed after normalization to the intensity of glyceraldehyde-3-phosphate dehydrogenase bands from individual repeats.

VHL-ElonginBC complex = biological target: T2, VHL-ElonginBC complex (Homo sapiens, UniProt P40337); test: Fluorescence-polarization (FP) competitive binding assay for VHL; details: VHL ligands; VHL-ElonginBC complex and fluorescent probe both 5 nM; read-out: FP Binding affinity IC50
T2 construct: His-TEV (His-tag with TEV protease site) (cleaved yes); made in house; host or cells: E. coli BL21(DE3)
Description: Cloning and Purification of VHL-ElonginBC complex. The DNA sequence of VHL (coding for residues 54-213) was constructed by PCR and inserted into a His-TEV expression vector^58 using ligation-independent cloning. The DNA sequences of Elongin B (encoding residues 1-118) and Elongin C (encoding residues 1-96) were constmcted by PCR and inserted into pCDFDuet 1 using Gibson assembly.^59 BL21(DE3) cells were transformed simultaneously with both plasmids and grown in Terrific Broth at 37° C. until an OD600 of 1.2. The cells were induced overnight with 0.4 mM IPTG at 24° C. Pelleted cells were freeze-thawed then resuspended in 20 mM Tris HCl pH7.0, 200 mM NaCl and 0.1% β-mercaptoethanol (bME) containing protease inhibitors. The cell suspension was lysed by sonication and debris removed via centrifugation. The supernatant was incubated at 4° C. for 1 hr with Ni-NTA (Qiagen) pre-washed in 20 mM Tris-HCl pH 7.0, 200 mM NaCl and 10 mM Imidazole. The protein complex was eluted in 20 mM Tris-HCl pH 7.0, 200 mM NaCl and 300 mM Imidazole, dialyzed into 20 mM Tris-HCl pH 7.0, 150 mM NaCl, and 0.01% bME and incubated with TEV protease overnight at 4° C. The protein sample was reapplied to the Ni-NTA column to remove the His-tag. The flow through containing the VHL complex was diluted to 75 mM NaCl and applied to a HiTrap Q column (GE Healthcare). The sample was eluted with a salt gradient (0.075-1 M NaCl), concentrated and further purified on a Superdex S75 column (GE Healthcare) pre-equilibrated with 20 mM Bis-Tris 7.0, 150 mM NaCl and 1 mM DTT. Samples were aliquoted and stored at −80° C.
Binding Affinities of VHL ligands to VHL. A fluorescence-polarization (FP) competitive assay was established using VHL-ElonginBC complex and a fluorescently tagged probe (SI). The IC50 and Ki values of VHL ligands were determined in competitive binding experiments. Mixtures of 5 μL of compounds in DMSO and 95 μL of preincubated protein/tracer complex solution were added into assay plates which were incubated at rt for 60 min with gentle shaking. Final concentrations of VHL-ElonginBC complex and fluorescent probe were both 5 nM. Negative controls containing protein/probe complex only (equivalent to 0% inhibition) and positive controls containing only free probes (equivalent to 100% inhibition) were included in each assay plate. FP values in millipolarization units (mP) were measured using the Infinite M-1000 plate reader (Tecan U.S., Research Triangle Park, N.C.) in Microfluor 1 96-well, black, round-bottom plates (Thermo Scientific, Waltham, Mass.) at an excitation wavelength of 485 nm and an emission wavelength of 530 nm. IC50 values were determined by nonlinear regression fitting of the competition curves. Ki values of competitive inhibitors were obtained directly by nonlinear regression fitting, based upon the KD values of the probe and concentrations of the protein and probe in the competitive assays. All the FP competitive experiments were performed in duplicate in three independent experiments.

ERα [4] = biological target: T1, ERα; test: Mechanism of ER degradation: pretreatment with VHL ligand, ER ligand or proteasome inhibitor, Western blotting in MCF-7 cells; type: cell-based; set-up: host or cells: MCF-7; details: 1 μM, alone
Description: (§3) Then whole-cell lysates were analyzed by Western blotting.
as §3
as §2, with “Western blot analysis was performed essentially as described previously (Hu et al, 2015, PMID: 26358219).” left out

| Structure (SMILES) | IC50 (VHL-ElonginBC complex) | maximum inhibition (Imax) (MCF-7 cells) | other results |
| --- | --- | --- | --- |
| C[C@]12CC[C@@H]3c4ccc(O)cc4C[C@@H](CCCCCCCCC[S+]([O-])CCCC(F)(F)C(F)(F)F)[C@H]3[C@@H]1CC[C@@H]2O (stereo partly shown) [fulvestrant] | – | 43.8% | solubility [1]: poor solubility; oral bioavailability [2]: not orally bioavailable; reduction of ER protein level at 1 h (ERα [3]; 1 h treatment): only a modest effect; maximum ER degradation in time course (ERα [3]; after a 24 h treatment): approximately 90% |
| O=C(c1ccc(OCCN2CCCCC2)cc1)c1c(-c2ccc(O)cc2)sc2cc(O)ccc12 [raloxifene] | – | 34.0% | – |
| CC(C)C[C@H](NC(=O)[C@H](CCc1ccccc1)NC(=O)CN1CCOCC1)C(=O)N[C@@H](Cc1ccccc1)C(=O)N[C@@H](CC(C)C)C(=O)[C@@]1(C)CO1 [carfilzomib, reference compound] | – | – | effect alone on ER protein levels (ERα [4]): no effect |
| CCNCCc1ccc(CN(CC)c2cc(OC)ccc2[C@@H]2CCc3cc(O)ccc3C2)cc1 [RAD1901] | – | 25.7% | – |

Now from value to molecule, other results behind:

| IC50 (VHL-ElonginBC complex) | Structure (SMILES) | maximum inhibition (Imax) (MCF-7 cells) | other results |
| --- | --- | --- | --- |
| 4.83 ± 0.418 µM | CC(=O)N[C@H](C(=O)N1C[C@H](O)C[C@H]1C(=O)N[C@@H](C)c1ccc(C#N)cc1)C(C)(C)C [45a, (2S,4R)-1-((S)-2-acetamido-3,3-dimethylbutanoyl)-N—((S)-1-(4-cyanophenyl)ethyl)-4-hydroxypyrrolidine-2-carboxamide] | – | – |
| 7.87 ± 0.642 µM | CC(=O)N[C@H](C(=O)N1C[C@H](O)C[C@H]1C(=O)N[C@@H](C)c1ccc(Cl)cc1)C(C)(C)C [43a, (2S,4R)-1-((S)-2-acetamido-3,3-dimethylbutanoyl)-N—((S)-1-(4-chlorophenyl)ethyl)-4-hydroxypyrrolidine-2-carboxamide] | – | – |
